This note sets out measurements from patent US11685719B2, “Pyridinone MK2 inhibitors and uses thereof” (Xinthera, Inc., priority 2021, dated 2023).

Bounds are passed on as bounds.

Test [1] addresses p38a/MK2 (Homo sapiens (Human), UniProt P49137+Q16539). Briefly: biochemical. Conditions: 10-point 1:3 dilution, top dose 1 μM; 10 μM ATP, 2 h incubation; read-out: p38a/MK2 (1 μM) Enzyme pIC50 (converted). In short, it runs like this: (§1)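 Recombinant N-terminal GST-tagged MK2 (F46-H400) or PRAK (M1-Q471), expressed in E. coli, were activated by p38. Activity read as phosphorylation of FITC-conjugated HSP27 peptide. IC50 taken as half-maximal inhibition of activation from 10-point 1:3 dilutions, top dose 1 or 10 μM for MK2 and 300 μM for PRAK.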

The target of test [2] is p38a/PRAK (Homo sapiens (Human), UniProt Q16539). Description: biochemical. Conditions: 10-point 1:3 dilution, top dose 300 μM; 10 μM ATP, 2 h incubation; read-out: p38a/PRAK Enzyme pIC50 (converted). The gist of the method:
as §1

Chain of p38a/PRAK (Q16539 whole entry): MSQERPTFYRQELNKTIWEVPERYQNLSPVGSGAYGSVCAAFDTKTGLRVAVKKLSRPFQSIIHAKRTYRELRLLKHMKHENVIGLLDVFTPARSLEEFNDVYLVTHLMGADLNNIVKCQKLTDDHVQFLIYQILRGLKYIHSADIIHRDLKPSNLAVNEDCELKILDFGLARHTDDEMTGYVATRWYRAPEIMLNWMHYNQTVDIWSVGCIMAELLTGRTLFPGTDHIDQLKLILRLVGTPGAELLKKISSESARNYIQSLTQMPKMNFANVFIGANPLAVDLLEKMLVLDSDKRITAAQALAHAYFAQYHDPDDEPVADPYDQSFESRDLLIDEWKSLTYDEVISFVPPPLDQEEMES
Chain of p38a/MK2 (Q16539 whole entry): as above
Chain of p38a/MK2 (P49137 46-400): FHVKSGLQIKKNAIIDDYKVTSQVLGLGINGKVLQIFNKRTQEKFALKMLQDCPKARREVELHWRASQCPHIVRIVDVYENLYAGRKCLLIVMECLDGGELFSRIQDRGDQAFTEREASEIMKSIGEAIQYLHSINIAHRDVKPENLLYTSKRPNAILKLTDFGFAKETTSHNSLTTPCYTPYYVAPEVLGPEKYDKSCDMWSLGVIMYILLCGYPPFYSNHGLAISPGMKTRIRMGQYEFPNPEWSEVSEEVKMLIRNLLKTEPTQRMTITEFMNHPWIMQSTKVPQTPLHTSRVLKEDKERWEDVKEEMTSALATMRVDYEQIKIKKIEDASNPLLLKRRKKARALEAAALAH

For `[2H]C([2H])(Oc1cc(C)n(-c2cc(-n3ccc(F)c(C(C)(C)O)c3=O)ncc2C)c(=O)c1Cl)c1ncc(F)cc1F` (single isomer, unassigned) [Example 26A, rel-3-chloro-4-[(3,5-difluoropyridin-2-yl)(2H2)methoxy]-2′-[4-fluoro-3-(2-hydroxypropan-2-yl)-2-oxopyridin-1-yl]-5′,6-dimethyl-[1,4′-bipyridin]-2-one], the IC50 in test [1] is 2.51 nM; in test [2], 3160 nM.

On to `[2H]C([2H])(Oc1cc(C)n(-c2cc(-n3ccc(F)c(C(C)(C)O)c3=O)ncc2C)c(=O)c1Cl)c1ncc(F)cc1F` (single isomer, unassigned) [Example 26B, rel-3-chloro-4-[(3,5-difluoropyridin-2-yl)(2H2)methoxy]-2′-[4-fluoro-3-(2-hydroxypropan-2-yl)-2-oxopyridin-1-yl]-5′,6-dimethyl-[1,4′-bipyridin]-2-one], for which the values for the IC50 in test [1] and in test [2] were more than 100 nM and more than 316000 nM, respectively.

Turning to `Cc1cnc(-n2ccn(C(C)(C)CO)c2=O)cc1-n1c(C)cc(OCc2ncc(F)cc2F)c(Cl)c1=O` (single isomer, unassigned) [Example 27A, rel-3-chloro-4-[(3,5-difluoropyridin-2-yl)methoxy]-2′-[3-(1-hydroxy-2-methylpropan-2-yl)-2-oxoimidazol-1-yl]-5′,6-dimethyl-[1,4′-bipyridin]-2-one], the IC50 in test [1] is more than 100 nM; in test [2], more than 316000 nM.

As for `Cc1cnc(-n2ccn(C(C)(C)CO)c2=O)cc1-n1c(C)cc(OCc2ncc(F)cc2F)c(Cl)c1=O` (single isomer, unassigned) [Example 27B, rel-3-chloro-4-[(3,5-difluoropyridin-2-yl)methoxy]-2′-[3-(1-hydroxy-2-methylpropan-2-yl)-2-oxoimidazol-1-yl]-5′,6-dimethyl-[1,4′-bipyridin]-2-one], the IC50 in test [1] is 12.6 nM; in test [2] it was 794 nM.

With `[2H]C([2H])(Oc1cc(C)n(-c2cc(-n3ccnc(C(C)(C)O)c3=O)ncc2C)c(=O)c1Cl)c1ncc(C)cc1F` (single isomer, unassigned) [Example 28A, rel-3-chloro-4-[(3-fluoro-5-methylpyridin-2-yl)(2H2)methoxy]-2′-[3-(2-hydroxypropan-2-yl)-2-oxopyrazin-1-yl]-5′,6-dimethyl-[1,4′-bipyridin]-2-one], the figures for the IC50 in test [1] and in test [2] were 1 nM and 3160 nM, respectively.

As for `[2H]C([2H])(Oc1cc(C)n(-c2cc(-n3ccnc(C(C)(C)O)c3=O)ncc2C)c(=O)c1Cl)c1ncc(C)cc1F` (single isomer, unassigned) [Example 28B, rel-3-chloro-4-[(3-fluoro-5-methylpyridin-2-yl)(2H2)methoxy]-2′-[3-(2-hydroxypropan-2-yl)-2-oxopyrazin-1-yl]-5′,6-dimethyl-[1,4′-bipyridin]-2-one], the IC50 in test [1] is more than 100 nM; in test [2], more than 316000 nM.
